Test results as given in US20230257367A1, “NOVEL THYROID HORMONE BETA RECEPTOR AGONIST” (Chengdu Kanghong Pharmaceutical Co., Ltd., priority 2020, published 2023).

Experiments:
primary hepatocyte = test: Hepatotoxicity detection in vitro (CellTiter-Glo); assay type: cell-based, human; conditions: primary hepatocytes; for IC50: Homo sapiens, Hepatocyte, cell viability after 48 hours; for Cell activity at the highest concentration (%): 48 hours, highest working solution concentration 600 μM
Experimental: Information of Primary Hepatocyte
Step 1: a test substance was prepared into a 200 mM DMSO stock solution, and then subjected to 3-times gradient continuous dilution by 7 concentrations, then 1.5 μL of each of the solutions of the 8 concentrations was added into 498.5 μL of incubation culture medium (with a composition referring to Table 5, directly mixed evenly) to prepare a working solution, and the incubation culture medium was preheated at 37° C. before preparation. DMSO was used as a solvent control. DMSO contents in the working solution and the solvent control were both 0.3 vol %. Concentrations of compounds were as follows:
Step 2: Plate Inoculation and Cell Culture
Second Step: Plate Inoculation and Culture of Cells
1) A tube of hepatocytes of the donor used in the experiment preserved at ultra-low temperature was taken, and the hepatocytes were ensured to be still frozen at low temperature before resuscitation. The hepatocytes were quickly placed in a water bath at 37° C. and gently shaken until all ice crystals were dispersed, and were transferred to a biosafety cabinet after spraying 70 vol % ethanol.
2) Contents of hepatocyte tubules were poured into a 50 mL centrifuge tube containing 50 mL of resuscitation culture medium (with a composition referring to Table 3, directly mixed evenly), and centrifuged at 80 g for 8 minutes. After centrifugation, the resuscitation culture medium was sucked out and an inoculation culture medium was added (with a composition referring to Table 4, directly mixed evenly). The cells were counted by AO/PI staining to obtain a cell suspension with a cell density of 0.2×10^6 cells per milliliter.
3) The cell suspension above was inoculated into a 96-well plate coated with collagen I, with 100 μL per well. The culture plate was placed in a 5% CO2 incubator with 95% relative humidity to culture for 4 hours to 6 hours.
4) After incubation for 4 hours to 6 hours, the state of the cells was observed under microscope. The culture plate was shaken gently, the inoculation culture medium was sucked out, and 100 μL of incubation culture medium was added into each well (with a composition referring to Table 5). A toxicity test could be carried out after culturing in the incubator for 18 hours to 20 hours.
5) Before administration, the morphology of the cells was observed under microscope. The culture medium in the culture plate was sucked out, and 100 μL of solvent control (DMSO), or test substance working solution was added into each well. Three parallel samples were tested under each condition.
6) The newly prepared working solution or solvent control was used for solution exchange every 24 hours after dosing.
After the working solution acted for 48 hours, the morphology of the cells was observed under microscope for later use.
Step 3: Cytotoxicity Detection
1) A CellTiter-Glo (Promega, article number G9243) reagent stored at −20° C. was melted in a water bath at 37° C.
2) After the cell culture plate obtained above was incubated for 48 hours, 50 μL of CellTiter-Glo solution was directly added into each experimental well.
3) The cell culture plate was vortexed at 400 rpm for 10 minutes, and incubated at room temperature to stabilize a luminescence signal.
After 10 minutes 100 μL of reaction solution was sucked from each well and transferred to a new white nontransparent-bottom flat plate (Corning 96-well plate Cat No. 3917). The
chemiluminescence value of each well was read by a microplate reader (a luminescence value of the white nontransparent-bottom flat plate was recorded as “a luminescence valueblank”; and a luminescence value of the solvent control was recorded as “a luminescence valuesolvent”).
Cell viability(%)=[(luminescence valueto-be-tested compound−luminescence valueblank)/(luminescence valuesolvent−luminescence valueblank)]×100% […]

TRβ = biological target: T1, TRβ (Homo sapiens, UniProt P10828); test: In vitro TRβ cell transfection experiment (GAL4 luciferase reporter, HEK293T); assay type: cell-based
T1 construct: host or cells: HEK293T
T1 sequence (P10828 217-461 limits assumed): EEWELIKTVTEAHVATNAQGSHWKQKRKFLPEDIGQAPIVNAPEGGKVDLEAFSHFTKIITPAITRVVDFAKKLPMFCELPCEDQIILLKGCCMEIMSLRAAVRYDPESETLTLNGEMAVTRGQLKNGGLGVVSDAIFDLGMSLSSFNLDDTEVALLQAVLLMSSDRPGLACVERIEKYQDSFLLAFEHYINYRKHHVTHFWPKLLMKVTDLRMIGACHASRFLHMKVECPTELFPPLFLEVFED
T1 sequence (P19793 227-458 partner limits assumed): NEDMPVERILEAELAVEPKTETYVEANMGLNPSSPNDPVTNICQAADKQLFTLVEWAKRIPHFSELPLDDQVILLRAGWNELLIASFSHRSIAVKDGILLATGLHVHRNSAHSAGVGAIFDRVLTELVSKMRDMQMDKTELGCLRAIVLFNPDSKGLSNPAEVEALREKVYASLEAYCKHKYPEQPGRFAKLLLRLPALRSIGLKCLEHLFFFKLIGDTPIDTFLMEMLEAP

TRα-LBD/RXRα = biological target: T2, TRα-LBD/RXRα (Homo sapiens, UniProt P10827); test: In vitro binding experiment (TR-FRET SRC2-2 co-activator peptide recruitment), TRα; assay type: biochemical; conditions: 4 h incubation at room temperature
T2 construct: TRα-LBD (Invitrogen, PV4762), or TRβ-LBD (Invitrogen, PV4764) with a GST tag were used; purchased Invitrogen (TRα-LBD); Pharmaron (RXRα) PV4762

TRβ-LBD/RXRα = biological target: T3, TRβ-LBD/RXRα (Homo sapiens, UniProt P10828); test: In vitro binding experiment (TR-FRET SRC2-2 co-activator peptide recruitment), TRβ; assay type: biochemical; conditions: 4 h incubation at room temperature
T3 construct: TRβ-LBD (Invitrogen, PV4764) with a GST tag were used; purchased Invitrogen (TRβ-LBD); Pharmaron (RXRα) PV4764

TRα = biological target: T4, TRα (Homo sapiens, UniProt P10827); test: In vitro TRα cell transfection experiment (GAL4 luciferase reporter, HEK293T); assay type: cell-based
T4 construct: host or cells: HEK293T
T4 sequence (P10827 1-410 isoform P10827-2): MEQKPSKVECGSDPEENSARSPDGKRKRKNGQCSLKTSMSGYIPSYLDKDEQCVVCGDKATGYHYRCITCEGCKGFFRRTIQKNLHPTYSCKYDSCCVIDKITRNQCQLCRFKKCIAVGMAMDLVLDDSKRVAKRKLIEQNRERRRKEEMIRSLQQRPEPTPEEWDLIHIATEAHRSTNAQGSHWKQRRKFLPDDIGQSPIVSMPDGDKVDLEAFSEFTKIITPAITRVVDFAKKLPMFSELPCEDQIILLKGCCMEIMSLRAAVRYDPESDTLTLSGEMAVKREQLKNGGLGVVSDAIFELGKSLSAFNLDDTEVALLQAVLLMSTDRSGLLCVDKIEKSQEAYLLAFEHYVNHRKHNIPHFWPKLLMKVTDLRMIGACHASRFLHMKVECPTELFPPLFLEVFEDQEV
T4 sequence (P19793 227-458 partner limits assumed): T1 sequence (P19793 227-458 partner limits assumed)

[1] = preclinical toxicological studies; cited from earlier work
[2] = reported clinical data (VK2809 phase I; Eprotirome phase III); cited from earlier work

T3 sequence (P19793 whole entry partner, other chains not shown, the tested form may be a part): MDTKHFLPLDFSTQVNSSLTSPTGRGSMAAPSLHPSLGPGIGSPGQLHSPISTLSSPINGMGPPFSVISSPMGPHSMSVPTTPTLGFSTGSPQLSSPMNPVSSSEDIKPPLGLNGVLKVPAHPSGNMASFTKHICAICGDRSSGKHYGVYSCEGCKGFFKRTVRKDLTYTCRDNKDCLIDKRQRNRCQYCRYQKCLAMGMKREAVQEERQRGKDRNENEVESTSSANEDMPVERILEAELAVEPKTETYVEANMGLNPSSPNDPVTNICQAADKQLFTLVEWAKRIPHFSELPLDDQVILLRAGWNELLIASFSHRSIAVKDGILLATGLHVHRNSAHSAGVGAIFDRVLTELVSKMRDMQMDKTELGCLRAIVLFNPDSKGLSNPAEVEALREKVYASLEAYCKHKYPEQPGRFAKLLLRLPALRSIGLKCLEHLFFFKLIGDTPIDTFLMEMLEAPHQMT
T2 sequence (P19793 whole entry partner, other chains not shown, the tested form may be a part): as above

EC50 (TRβ) [µM]	EC50 (TRα-LBD/RXRα) [µM]	EC50 (TRβ-LBD/RXRα) [µM]	EC50 (TRα) [µM]	SMILES	IC50 (primary hepatocyte) [nM]	Cell activity at the highest concentration (%) (primary hepatocyte)	cartilage damage [1]	liver enzyme [2]
0.089	0.144	0.031	0.826	CC(C)c1nc(Oc2c(Cl)cc(-n3nc(C#N)c(=O)[nH]c3=O)cc2Cl)ncc1O [KH03]	264000	0.0421		
0.032	1.47	0.054	0.269	O=c1cnn(-c2cc(Cl)c(Oc3ncc(O)c(Cc4ccccc4)n3)c(Cl)c2)c(=O)[nH]1 [KH10]	160000	0.0142		
				CC(C)c1cc(Oc2c(Br)cc(NC(=O)CC(=O)O)cc2Br)ccc1O [Eprotirome]			cartilage injury was also found	increase in liver enzyme
				Cc1cc(OCP2(=O)OCC[C@@H](c3cccc(Cl)c3)O2)cc(C)c1Cc1ccc(O)c(C(C)C)c1 (stereo partly shown) [VK2809]			cartilage damage was found	Liver enzyme increase
